Reference: PMC6001834 (Drug Design, Development and Therapy, 2018)

Tested on: AMI rats
Assay: In vivo effects of LNCs on infarct size
Design: species or system Sprague-Dawley rats
Settings: intravenous injection, n=8, AMI group 58%

**Q.** With `Nc1ncnc2c1ncn2[C@@H]1O[C@H](CO)[C@@H](O)[C@H]1O` [free Ade, Adenosine] as the compound, how does the “infarct size (percentage of whole size of the left ventricle)” value read?
**A.** 47%
